Laboratory results as given in ChEMBL document CHEMBL1201862, “PubChem BioAssay data set” (2004).
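48-hour exposure; five concentrations; linearly interpolated endpoints. GI50 is the concentration that inhibits growth by half.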 The source made the active and inactive calls. No stated cut-off is given here; in the data, active = GI50 up to about 1.1 µM and inactive = higher.

Columns and labels:
Assay in all cases: inhibition of tumour cell growth, NCI panel, 48 h
[1] = tested on: A549
[2] = tested on: SK-MEL-5
[3] = tested on: SR
[4] = tested on: CCRF-CEM
[5] = tested on: Malme-3M
[6] = tested on: M14
[7] = tested on: SF-268
[8] = tested on: IGROV-1
[9] = tested on: OVCAR-5
[10] = tested on: SNB-19
[11] = tested on: 786-0
[12] = tested on: SK-OV-3
[13] = tested on: EKVX
[14] = tested on: ACHN
[15] = tested on: DLD-1
[16] = tested on: SF-295
[17] = tested on: HT-29
[18] = tested on: OVCAR-4
[19] = tested on: MOLT-4
[20] = tested on: SNB-78
[21] = tested on: SK-MEL-2
[22] = tested on: HOP-62
[23] = tested on: NCI-H23
[24] = tested on: HOP-92
[25] = tested on: UACC-62
[26] = tested on: RPMI-8226
[27] = tested on: RXF 393
[28] = tested on: LOX IMVI
[29] = tested on: OVCAR-8
[30] = tested on: DMS-114
[31] = tested on: NCI-H460
[32] = tested on: UO-31
[33] = tested on: SK-MEL-28
[34] = tested on: SNB-75
[35] = tested on: TK-10
[36] = tested on: M19-MEL
[37] = tested on: HOP-18
[38] = tested on: SN12C
[39] = tested on: COLO 205
[40] = tested on: U-251
[41] = tested on: HCT-15
[42] = tested on: NCI-H226
[43] = tested on: KM-20L2
[44] = tested on: K562
[45] = tested on: KM12
[46] = tested on: SF-539
[47] = tested on: A498
[48] = tested on: CAKI-1
[49] = tested on: OVCAR-3
[50] = tested on: DMS-273
[51] = tested on: RXF 631
[52] = tested on: LXFL 529
[53] = tested on: UACC-257
[54] = tested on: HCC 2998
[55] = tested on: NCI-H522
[56] = tested on: HL-60
[57] = tested on: HCT-116
[58] = tested on: SW-620

For `CCOC(OC1=C(C#N)CCC1)C(C)[Se]c1ccccc1` (centres undefined), the GI50 [1] was 67.8 µM (inactive), the GI50 [2] was 15.8 µM (inactive) and the GI50 [3] was 11.6 µM (inactive). For the same compound, the GI50 [4] was > 100 µM (inactive), the GI50 [5] was 12.7 µM (inactive) and the GI50 [6] was 16.1 µM (inactive). For the same compound, the GI50 [7] was 19.8 µM (inactive), the GI50 [8] was 25.8 µM (inactive) and the GI50 [9] was 39.8 µM (inactive). The GI50 [10] was 48.1 µM (inactive), the GI50 [11] was 14.4 µM (inactive) and the GI50 [12] was > 100 µM (inactive). For the same compound, the GI50 [13] was 30.5 µM (inactive), the GI50 [14] was 32.1 µM (inactive) and the GI50 [15] was 30.5 µM (inactive). For the same compound, the GI50 [16] was 22.2 µM (inactive), the GI50 [17] was 42.2 µM (inactive) and the GI50 [18] was 14.9 µM (inactive). For the same compound, the GI50 [19] was 18 µM (inactive), the GI50 [20] was 29.8 µM (inactive) and the GI50 [21] was 16.8 µM (inactive). The GI50 [22] was > 100 µM (inactive), the GI50 [23] was 12.9 µM (inactive) and the GI50 [24] was 24.4 µM (inactive). The GI50 [25] was 18.5 µM (inactive), the GI50 [26] was 23.3 µM (inactive) and the GI50 [27] was 18 µM (inactive). The GI50 [28] was 10 µM (inactive), the GI50 [29] was 18.7 µM (inactive) and the GI50 [30] was 4.06 µM (inactive). The GI50 [31] was 36.4 µM (inactive), the GI50 [32] was 26.5 µM (inactive) and the GI50 [33] was 40.6 µM (inactive). For the same compound, the GI50 [34] was 22.3 µM (inactive), the GI50 [35] was > 100 µM (inactive) and the GI50 [36] was 14.8 µM (inactive). The GI50 [37] was 25.4 µM (inactive), the GI50 [38] was 14.7 µM (inactive) and the GI50 [39] was 27.5 µM (inactive). For the same compound, the GI50 [40] was 6.41 µM (inactive), the GI50 [41] was 15.9 µM and the GI50 [42] was 19.7 µM (inactive). The GI50 [43] was 45.4 µM (inactive), the GI50 [44] was 55.6 µM (inactive) and the GI50 [45] was 92.9 µM (inactive). The GI50 [46] was 21.6 µM (inactive), the GI50 [47] was > 100 µM (inactive) and the GI50 [48] was 59.7 µM (inactive). For the same compound, the GI50 [49] was 18.1 µM (inactive), the GI50 [50] was 14.5 µM (inactive) and the GI50 [51] was 11.1 µM (inactive). The GI50 [52] was 17.2 µM (inactive), the GI50 [53] was 62.8 µM (inactive) and the GI50 [54] was 46.7 µM (inactive). For the same compound, the GI50 [55] was 13.5 µM (inactive), the GI50 [56] was 21 µM (inactive) and the GI50 [57] was 18.8 µM (inactive).

With `CCCCCCCCOCC(CO)OCCCCCCCC` (centres undefined) the GI50 [1] was 18.9 µM (inactive), the GI50 [2] was 17.9 µM (inactive) and the GI50 [3] was > 10 µM (inactive). The GI50 [4] was 22.5 µM (inactive), the GI50 [5] was 19.6 µM (inactive) and the GI50 [6] was 26.1 µM (inactive). For the same compound, the GI50 [7] was 15 µM (inactive), the GI50 [8] was 21.7 µM (inactive) and the GI50 [9] was 17.9 µM (inactive). For the same compound, the GI50 [10] was 23.7 µM (inactive), the GI50 [11] was 19.6 µM (inactive) and the GI50 [12] was > 100 µM (inactive). For the same compound, the GI50 [14] was 17.2 µM (inactive), the GI50 [15] was 18 µM (inactive) and the GI50 [16] was 16.3 µM (inactive). For the same compound, the GI50 [17] was 20.6 µM (inactive), the GI50 [18] was 19.2 µM (inactive) and the GI50 [19] was 19.2 µM (inactive). The GI50 [22] was 21.6 µM (inactive), the GI50 [23] was 18.7 µM (inactive) and the GI50 [24] was 21.8 µM (inactive). The GI50 [25] was 20.1 µM (inactive), the GI50 [26] was 21.7 µM (inactive) and the GI50 [28] was 17.6 µM (inactive). For the same compound, the GI50 [29] was 19.3 µM (inactive), the GI50 [58] was 19.8 µM (inactive) and the GI50 [30] was 21.2 µM (inactive). The GI50 [31] was 15.8 µM (inactive), the GI50 [32] was 20 µM (inactive) and the GI50 [33] was 19.2 µM (inactive). The GI50 [35] was 19.2 µM (inactive), the GI50 [36] was 20 µM (inactive) and the GI50 [37] was 11.7 µM (inactive). For the same compound, the GI50 [38] was 17.4 µM (inactive), the GI50 [39] was 20.6 µM (inactive) and the GI50 [40] was 17.3 µM (inactive). For the same compound, the GI50 [41] was 15.9 µM, the GI50 [42] was 24.4 µM (inactive) and the GI50 [43] was > 10 µM (inactive). For the same compound, the GI50 [44] was 18.4 µM (inactive), the GI50 [47] was 18.8 µM (inactive) and the GI50 [48] was 30.5 µM (inactive). For the same compound, the GI50 [49] was 19.9 µM (inactive), the GI50 [50] was 18.7 µM (inactive) and the GI50 [51] was 17.7 µM (inactive). The GI50 [52] was 18.9 µM (inactive), the GI50 [53] was 21.3 µM (inactive) and the GI50 [54] was 18.9 µM (inactive). The GI50 [56] was 19 µM (inactive) and the GI50 [57] was 19.4 µM (inactive).

`O=P(O)(O)C1CCCC(P(=O)(O)O)N1` (centres undefined) was tested, and the GI50 [1] was > 100 µM (inactive), the GI50 [3] was > 100 µM (inactive) and the GI50 [4] was > 100 µM (inactive). For the same compound, the GI50 [6] was > 100 µM (inactive), the GI50 [7] was > 100 µM (inactive) and the GI50 [8] was > 100 µM (inactive). For the same compound, the GI50 [9] was > 100 µM (inactive), the GI50 [10] was > 100 µM (inactive) and the GI50 [12] was > 100 µM (inactive). For the same compound, the GI50 [13] was > 100 µM (inactive), the GI50 [14] was > 100 µM (inactive) and the GI50 [16] was > 100 µM (inactive). The GI50 [17] was > 100 µM (inactive), the GI50 [19] was > 100 µM (inactive) and the GI50 [20] was > 100 µM (inactive). For the same compound, the GI50 [22] was > 100 µM (inactive), the GI50 [23] was > 100 µM (inactive) and the GI50 [24] was > 100 µM (inactive). The GI50 [27] was > 100 µM (inactive), the GI50 [29] was > 100 µM (inactive) and the GI50 [30] was > 100 µM (inactive). For the same compound, the GI50 [31] was > 100 µM (inactive), the GI50 [32] was > 100 µM (inactive) and the GI50 [33] was > 100 µM (inactive). For the same compound, the GI50 [35] was > 100 µM (inactive), the GI50 [36] was > 100 µM (inactive) and the GI50 [40] was > 100 µM (inactive). For the same compound, the GI50 [42] was > 100 µM (inactive), the GI50 [43] was > 100 µM (inactive) and the GI50 [45] was > 100 µM (inactive). For the same compound, the GI50 [47] was > 100 µM (inactive), the GI50 [50] was > 100 µM (inactive) and the GI50 [51] was > 100 µM (inactive). For the same compound, the GI50 [53] was > 100 µM (inactive), the GI50 [55] was > 100 µM (inactive) and the GI50 [56] was > 100 µM (inactive). For the same compound, the GI50 [57] was > 100 µM (inactive).
